Results published in ChEMBL document CHEMBL4813928, “Targeted Isolation of Asperheptatides from a Coral-Derived Fungus Using LC-MS/MS-Based Molecular Networking and Antitubercular Activities of Modified Cinnamate Derivatives” (2021).
Values after ≈ are worked out from the molar mass of the structure shown. Square brackets hold non-standard residues; d marks the D form. Peptide text beside a SMILES is read from it.

Experiments:
[1] = test system: Mycobacterium tuberculosis; experiment: Antitubercular activity against Mycobacterium tuberculosis H37Ra assessed as bacterial growth inhibition; assay type: functional
[2] = test system: Mycobacterium tuberculosis; experiment: Antitubercular activity against Mycobacterium tuberculosis H37Ra assessed as bacterial growth inhibition relative to parent compound; assay type: functional

Compound | MIC [1] [µM] | fold change (FC) [2]
CC(C)[C@H]1NC(=O)[C@H](Cc2ccccc2)NC(=O)[C@@H](C(C)C)NC(=O)[C@@H](C)NC(=O)[C@H](CO)NC(=O)[C@@H](Cc2c[nH]c3ccccc23)NC(=O)[C@@H](CO)NC1=O (cyclo([dV][dS][dW]S[dA][dV]F)) | > 100 | 
CC(C)[C@H]1NC(=O)[C@H](Cc2ccccc2)NC(=O)[C@@H](C(C)C)NC(=O)[C@@H](C)NC(=O)[C@H](CO)NC(=O)[C@@H](Cc2c[nH]c3ccccc23)NC(=O)[C@@H](COC(=O)/C=C/c2ccccc2)NC1=O | > 100 | 
CC(C)[C@H]1NC(=O)[C@H](Cc2ccccc2)NC(=O)[C@@H](C(C)C)NC(=O)[C@@H](C)NC(=O)[C@H](CO)NC(=O)[C@@H](Cc2c[nH]c3ccccc23)NC(=O)[C@@H](COC(=O)/C=C/c2ccc(N(C)C)cc2)NC1=O | 50 (≈ 47.5 µg/mL) | 
CC(C)[C@H]1NC(=O)[C@H](Cc2ccccc2)NC(=O)[C@@H](C(C)C)NC(=O)[C@@H](C)NC(=O)[C@H](COC(=O)/C=C/c2ccccc2Cl)NC(=O)[C@@H](Cc2c[nH]c3ccccc23)NC(=O)[C@@H](COC(=O)/C=C/c2ccccc2Cl)NC1=O | 50 (≈ 55.3 µg/mL) | 
CC(C)[C@H]1NC(=O)CNC(=O)[C@H](CO)NC(=O)[C@@H](Cc2c[nH]c3ccccc23)NC(=O)[C@@H](C)NC(=O)[C@@H](C(C)C)NC(=O)[C@H](Cc2ccccc2)NC1=O | 100 (≈ 74.7 µg/mL) | 
COc1cc(/C=C/C(=O)OC[C@H]2NC(=O)[C@@H](C(C)C)NC(=O)[C@H](Cc3ccccc3)NC(=O)[C@@H](C(C)C)NC(=O)[C@@H](C)NC(=O)[C@H](CO)NC(=O)[C@@H](Cc3c[nH]c4ccccc34)NC2=O)ccc1OCc1ccccc1 | 50 (≈ 52.2 µg/mL) | 
CC(C)[C@H]1NC(=O)[C@H](Cc2ccccc2)NC(=O)[C@@H](C(C)C)NC(=O)[C@@H](C)NC(=O)[C@H](COC(=O)/C=C/c2ccc(N(C)C)cc2)NC(=O)[C@@H](Cc2c[nH]c3ccccc23)NC(=O)[C@@H](COC(=O)/C=C/c2ccc(N(C)C)cc2)NC1=O | 50 (≈ 56.2 µg/mL) | 
CC(C)[C@H]1NC(=O)[C@H](Cc2ccccc2)NC(=O)[C@@H](C(C)C)NC(=O)[C@@H](C)NC(=O)[C@H](COC(=O)/C=C/c2cccc(Cl)c2)NC(=O)[C@@H](Cc2c[nH]c3ccccc23)NC(=O)[C@@H](COC(=O)/C=C/c2cccc(Cl)c2)NC1=O | 100 (≈ 111 µg/mL) | 
CC(C)[C@H]1NC(=O)[C@H](Cc2ccccc2)NC(=O)[C@@H](C(C)C)NC(=O)[C@@H](C)NC(=O)[C@H](COC(=O)/C=C/c2ccccc2)NC(=O)[C@@H](Cc2c[nH]c3ccccc23)NC(=O)[C@@H](COC(=O)/C=C/c2ccccc2)NC1=O | > 100 | 
NNC(=O)c1ccncc1 [ISONIAZID] | 0.0125 (≈ 0.00171 µg/mL) | 
CC(C)[C@H]1NC(=O)[C@H](Cc2ccccc2)NC(=O)[C@@H](C(C)C)NC(=O)[C@@H](C)NC(=O)[C@H](C)NC(=O)[C@@H](Cc2c[nH]c3ccccc23)NC(=O)[C@@H](C)NC1=O (cyclo([dV][dA][dW]A[dA][dV]F)) | 100 (≈ 74.5 µg/mL) | 
COc1cc(Br)c(/C=C/C(=O)OC[C@@H]2NC(=O)[C@@H](Cc3c[nH]c4ccccc34)NC(=O)[C@@H](COC(=O)/C=C/c3cc(OC)c(OC)cc3Br)NC(=O)[C@@H](C(C)C)NC(=O)[C@H](Cc3ccccc3)NC(=O)[C@@H](C(C)C)NC(=O)[C@@H](C)NC2=O)cc1OC | 100 (≈ 132 µg/mL) | 
CC(C)[C@H]1NC(=O)[C@H](Cc2ccccc2)NC(=O)[C@@H](C(C)C)NC(=O)[C@@H](C)NC(=O)[C@H](COC(=O)/C=C/c2ccc(F)c(F)c2)NC(=O)[C@@H](Cc2c[nH]c3ccccc23)NC(=O)[C@@H](COC(=O)/C=C/c2ccc(F)c(F)c2)NC1=O | 12.5 (≈ 13.9 µg/mL) | 10
COc1ccc(/C=C/C(=O)OC[C@@H]2NC(=O)[C@@H](Cc3c[nH]c4ccccc34)NC(=O)[C@@H](COC(=O)/C=C/c3ccc(OC)cc3)NC(=O)[C@@H](C(C)C)NC(=O)[C@H](Cc3ccccc3)NC(=O)[C@@H](C(C)C)NC(=O)[C@@H](C)NC2=O)cc1 | 100 (≈ 110 µg/mL) | 
CC(C)[C@H]1NC(=O)[C@H](Cc2ccccc2)NC(=O)[C@@H](C(C)C)NC(=O)[C@@H](C)NC(=O)[C@H](COC(=O)/C=C/c2ccc(Cl)cc2)NC(=O)[C@@H](Cc2c[nH]c3ccccc23)NC(=O)[C@@H](COC(=O)/C=C/c2ccc(Cl)cc2)NC1=O | 50 (≈ 55.3 µg/mL) | 
COc1ccc(/C=C/C(=O)OC[C@@H]2NC(=O)[C@@H](Cc3c[nH]c4ccccc34)NC(=O)[C@@H](COC(=O)/C=C/c3ccc(OC)c(OC)c3)NC(=O)[C@@H](C(C)C)NC(=O)[C@H](Cc3ccccc3)NC(=O)[C@@H](C(C)C)NC(=O)[C@@H](C)NC2=O)cc1OC | 100 (≈ 116 µg/mL) | 
CC(C)[C@H]1NC(=O)CNC(=O)[C@H](C)NC(=O)[C@@H](Cc2c[nH]c3ccccc23)NC(=O)[C@@H](CO)NC(=O)[C@@H](C(C)C)NC(=O)[C@H](Cc2ccccc2)NC1=O | 100 (≈ 74.7 µg/mL) | 
Cc1ccc(/C=C/C(=O)OC[C@@H]2NC(=O)[C@@H](Cc3c[nH]c4ccccc34)NC(=O)[C@@H](COC(=O)/C=C/c3ccc(C)cc3)NC(=O)[C@@H](C(C)C)NC(=O)[C@H](Cc3ccccc3)NC(=O)[C@@H](C(C)C)NC(=O)[C@@H](C)NC2=O)cc1 | 12.5 (≈ 13.3 µg/mL) | 10
Cc1ccccc1/C=C/C(=O)OC[C@@H]1NC(=O)[C@@H](Cc2c[nH]c3ccccc23)NC(=O)[C@@H](COC(=O)/C=C/c2ccccc2C)NC(=O)[C@@H](C(C)C)NC(=O)[C@H](Cc2ccccc2)NC(=O)[C@@H](C(C)C)NC(=O)[C@@H](C)NC1=O | 12.5 (≈ 13.3 µg/mL) | 10
COc1ccc(/C=C/C(=O)OC[C@H]2NC(=O)[C@@H](C(C)C)NC(=O)[C@H](Cc3ccccc3)NC(=O)[C@@H](C(C)C)NC(=O)[C@@H](C)NC(=O)[C@H](CO)NC(=O)[C@@H](Cc3c[nH]c4ccccc34)NC2=O)cc1 | 12.5 (≈ 11.7 µg/mL) | 10
CO[C@H]1/C=C/O[C@@]2(C)Oc3c(C)c(O)c4c(O)c(c(/C=N/N5CCN(C)CC5)c(O)c4c3C2=O)NC(=O)/C(C)=C\C=C\[C@H](C)[C@H](O)[C@@H](C)[C@@H](O)[C@@H](C)[C@H](OC(C)=O)[C@@H]1C [RIFAMPIN] | 0.00625 (≈ 0.00514 µg/mL) | 
CC(C)[C@H]1NC(=O)CNC(=O)[C@H](CO)NC(=O)[C@@H](Cc2c[nH]c3ccccc23)NC(=O)[C@@H](CO)NC(=O)[C@@H](C(C)C)NC(=O)[C@H](Cc2ccccc2)NC1=O (cyclo([dV][dS][dW]SG[dV]F)) | 100 (≈ 76.3 µg/mL) | 
COc1cc(/C=C/C(=O)OC[C@@H]2NC(=O)[C@@H](Cc3c[nH]c4ccccc34)NC(=O)[C@@H](COC(=O)/C=C/c3ccc(OCc4ccccc4)c(OC)c3)NC(=O)[C@@H](C(C)C)NC(=O)[C@H](Cc3ccccc3)NC(=O)[C@@H](C(C)C)NC(=O)[C@@H](C)NC2=O)ccc1OCc1ccccc1 | 100 (≈ 131 µg/mL) | 
COc1cc(Br)c(/C=C/C(=O)OC[C@H]2NC(=O)[C@@H](C(C)C)NC(=O)[C@H](Cc3ccccc3)NC(=O)[C@@H](C(C)C)NC(=O)[C@@H](C)NC(=O)[C@H](CO)NC(=O)[C@@H](Cc3c[nH]c4ccccc34)NC2=O)cc1OC | 50 (≈ 52.3 µg/mL) | 
CC(C)[C@H]1NC(=O)[C@H](Cc2ccccc2)NC(=O)[C@@H](C(C)C)NC(=O)[C@@H](C)NC(=O)[C@H](COC(=O)/C=C/c2ccc(C(F)(F)F)cc2)NC(=O)[C@@H](Cc2c[nH]c3ccccc23)NC(=O)[C@@H](COC(=O)/C=C/c2ccc(C(F)(F)F)cc2)NC1=O | 100 (≈ 117 µg/mL) | 
CC(C)[C@H]1NC(=O)[C@H](Cc2ccccc2)NC(=O)[C@@H](C(C)C)NC(=O)[C@@H](C)NC(=O)[C@H](COC(=O)/C=C/c2ccc(F)cc2)NC(=O)[C@@H](Cc2c[nH]c3ccccc23)NC(=O)[C@@H](COC(=O)/C=C/c2ccc(F)cc2)NC1=O | 50 (≈ 53.7 µg/mL) | 
